Data published in ChEMBL document CHEMBL4130634, “Discovery of Reversible DNA Methyltransferase and Lysine Methyltransferase G9a Inhibitors with Antitumoral in Vivo Efficacy” (J Med Chem, 2018).

Key:
[1] = target: T1, Histone-lysine N-methyltransferase EHMT2 (Homo sapiens, UniProt Q96KQ7); assay: Inhibition of G9a (unknown origin)
T1 sequence (Q96KQ7 whole entry): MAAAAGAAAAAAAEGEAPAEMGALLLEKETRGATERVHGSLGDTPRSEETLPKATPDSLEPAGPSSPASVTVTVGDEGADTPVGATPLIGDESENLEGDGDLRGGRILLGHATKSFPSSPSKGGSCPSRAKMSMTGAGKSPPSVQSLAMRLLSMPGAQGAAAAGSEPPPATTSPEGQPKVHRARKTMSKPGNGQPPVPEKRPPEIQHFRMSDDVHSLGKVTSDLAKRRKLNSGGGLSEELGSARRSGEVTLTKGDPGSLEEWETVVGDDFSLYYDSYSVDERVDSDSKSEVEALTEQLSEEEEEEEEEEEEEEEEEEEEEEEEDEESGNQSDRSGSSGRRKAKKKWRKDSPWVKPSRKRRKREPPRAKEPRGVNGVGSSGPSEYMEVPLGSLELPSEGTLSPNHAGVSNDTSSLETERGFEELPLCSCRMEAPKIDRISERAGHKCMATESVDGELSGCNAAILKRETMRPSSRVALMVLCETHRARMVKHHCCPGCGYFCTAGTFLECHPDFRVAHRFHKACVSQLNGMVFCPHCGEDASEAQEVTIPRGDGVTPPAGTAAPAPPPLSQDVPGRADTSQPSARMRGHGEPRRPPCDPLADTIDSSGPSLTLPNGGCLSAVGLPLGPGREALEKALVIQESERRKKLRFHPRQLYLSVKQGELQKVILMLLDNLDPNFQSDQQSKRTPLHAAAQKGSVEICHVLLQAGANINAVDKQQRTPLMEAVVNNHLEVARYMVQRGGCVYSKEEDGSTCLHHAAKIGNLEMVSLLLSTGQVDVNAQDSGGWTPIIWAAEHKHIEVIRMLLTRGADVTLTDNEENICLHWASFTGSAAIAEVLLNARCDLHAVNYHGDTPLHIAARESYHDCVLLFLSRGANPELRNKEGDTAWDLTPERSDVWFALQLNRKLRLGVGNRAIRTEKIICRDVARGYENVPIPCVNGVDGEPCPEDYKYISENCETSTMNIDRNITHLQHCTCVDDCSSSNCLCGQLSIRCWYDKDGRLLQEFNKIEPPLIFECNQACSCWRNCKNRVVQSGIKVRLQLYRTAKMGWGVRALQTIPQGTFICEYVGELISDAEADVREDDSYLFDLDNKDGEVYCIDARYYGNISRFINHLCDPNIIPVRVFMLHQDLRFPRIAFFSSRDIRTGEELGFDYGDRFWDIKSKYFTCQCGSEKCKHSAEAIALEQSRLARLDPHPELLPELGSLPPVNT

[2] = target: T1, Histone-lysine N-methyltransferase EHMT2; assay: Inhibition of human G9a using biotinylated-H3K9 peptide as substrate after 1 hr in presence of SAM by TR-FRET assay
[3] = system: MV4-11; assay: Antitumor activity against human MV4-11 cells xenografted in SCID-beige mouse assessed as tumor growth inhibition at 30 mg/kg/day via osmotic pump for 2 weeks relative to control; type: functional; conditions: MV4-11, 336 h, read-out: TGI

| SMILES | IC50 [1] [µM] | IC50 [2] [µM] | inhibition in vivo at 30 mg/kg/day [3] [%] |
| --- | --- | --- | --- |
| Cc1cc(Nc2ccc(NC(=O)c3ccc(Nc4ccnc5ccccc45)cc3)cc2)nc(N)n1 | 59 | > 10 | – |
| COc1cc2c(cc1OCCCN1CCCC1)N=C(N)C21CCC1 | – | – | 45 |
